Test results published in patent US20240217967A1, “INDOLINE DERIVATIVES AS DDRS INHIBITORS” (CHIESI FARMACEUTICI S.P.A., priority 2021, published 2024).

Columns and labels:
DDR2 [1] = biological target: T1, DDR2 (Homo sapiens, UniProt Q16832); assay: DDR2 cell based assay (phospho-ELISA in HEK293T-DDR2 recombinant cells, collagen II stimulation); conditions: bovine Type II Collagen stimulation
T1 sequence (Q16832 22-855): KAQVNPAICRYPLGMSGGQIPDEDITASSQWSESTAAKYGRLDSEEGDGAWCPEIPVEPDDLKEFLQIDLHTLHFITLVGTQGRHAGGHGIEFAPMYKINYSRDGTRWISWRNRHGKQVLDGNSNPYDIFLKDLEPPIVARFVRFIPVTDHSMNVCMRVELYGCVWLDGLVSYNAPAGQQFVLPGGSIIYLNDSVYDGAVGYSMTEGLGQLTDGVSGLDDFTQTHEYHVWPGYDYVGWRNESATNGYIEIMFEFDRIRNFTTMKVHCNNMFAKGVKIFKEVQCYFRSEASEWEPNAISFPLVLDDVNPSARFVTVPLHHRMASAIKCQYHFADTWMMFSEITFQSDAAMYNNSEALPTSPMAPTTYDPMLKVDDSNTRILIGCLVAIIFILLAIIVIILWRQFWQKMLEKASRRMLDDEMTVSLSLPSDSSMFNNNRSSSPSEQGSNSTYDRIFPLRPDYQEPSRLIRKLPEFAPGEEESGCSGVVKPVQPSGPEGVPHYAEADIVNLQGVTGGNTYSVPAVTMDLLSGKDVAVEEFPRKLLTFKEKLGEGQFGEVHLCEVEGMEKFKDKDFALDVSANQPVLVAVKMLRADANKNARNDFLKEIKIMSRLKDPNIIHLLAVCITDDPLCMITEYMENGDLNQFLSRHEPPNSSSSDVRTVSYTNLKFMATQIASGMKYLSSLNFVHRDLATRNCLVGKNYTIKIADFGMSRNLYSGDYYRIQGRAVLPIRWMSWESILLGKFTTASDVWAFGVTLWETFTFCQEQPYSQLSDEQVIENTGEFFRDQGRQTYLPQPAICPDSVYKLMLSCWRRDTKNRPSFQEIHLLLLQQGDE
Procedure: The inhibition of DDR2 phosphorylation by compounds was evaluated in HEK293T-DDR2 recombinant cells by phospho-ELISA assay. Briefly, HEK293T-DDR2 cells were seeded in poly-D-lysine-coated 24-well plates at a density of 250.000 cells/well and incubated for 1.5 hours at 37° C. and 5% CO2 in DMEM+10% FBS. After that, the medium was changed to serum-free DMEM and cells were incubated for 3 hours. Then. test compounds were added at different concentrations 30 minutes before stimulation with bovine Type II Collagen at 50 μg/ml for further 3 hours. For DDR2 phospho-ELISA assay (DuoSet IC Human Phospho-DDR2; R&D Systems), protein extracts were obtained by adding 60 μl/well of lysis buffer prepared according to the manufacturer's instructions. Protein concentration in the samples was determined by BCA assay and the levels of phospho-DDR2 were determined following R&D Systems indications. Raw data were normalized to maximal inhibition control (0% for normalization) and positive control (100% for normalization; cells treated with […] collagen II) and IC50 parameters were calculated in GraphPad Prism 8.0 software, using sigmoidal dose-response curve fitting with variable slope.

DDR1 [2] = biological target: T2, DDR1 (Homo sapiens, UniProt Q08345); assay: DDR1 cell based assay (PathHunter U2OS DDR1, collagen II stimulation); conditions: U2OS-DDR1 cells, bovine Type II Collagen stimulation
T2 sequence (Q08345 19-913): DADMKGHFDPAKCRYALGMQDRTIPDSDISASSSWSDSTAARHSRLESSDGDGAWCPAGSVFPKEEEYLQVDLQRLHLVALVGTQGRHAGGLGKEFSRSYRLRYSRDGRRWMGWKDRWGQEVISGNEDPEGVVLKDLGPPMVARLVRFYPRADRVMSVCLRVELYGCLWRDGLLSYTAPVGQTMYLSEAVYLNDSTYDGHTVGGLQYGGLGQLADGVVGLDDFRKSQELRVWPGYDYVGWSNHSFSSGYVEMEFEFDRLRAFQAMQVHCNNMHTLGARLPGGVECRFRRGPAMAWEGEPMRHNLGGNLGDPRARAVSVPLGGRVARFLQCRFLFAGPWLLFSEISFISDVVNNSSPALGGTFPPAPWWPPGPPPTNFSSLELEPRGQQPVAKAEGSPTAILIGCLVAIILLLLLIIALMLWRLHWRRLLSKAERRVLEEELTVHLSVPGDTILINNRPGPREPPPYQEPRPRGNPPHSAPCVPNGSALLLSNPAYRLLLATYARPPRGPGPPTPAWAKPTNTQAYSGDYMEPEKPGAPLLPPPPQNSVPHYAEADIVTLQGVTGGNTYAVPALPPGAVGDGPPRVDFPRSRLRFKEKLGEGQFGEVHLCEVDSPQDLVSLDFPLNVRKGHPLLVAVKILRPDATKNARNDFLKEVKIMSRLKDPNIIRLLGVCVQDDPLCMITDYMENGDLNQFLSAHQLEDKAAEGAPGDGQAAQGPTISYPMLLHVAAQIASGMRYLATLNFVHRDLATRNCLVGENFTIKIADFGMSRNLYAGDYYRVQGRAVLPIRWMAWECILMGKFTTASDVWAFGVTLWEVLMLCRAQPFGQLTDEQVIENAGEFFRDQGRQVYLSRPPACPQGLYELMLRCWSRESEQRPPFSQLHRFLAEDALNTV
Method in brief: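 U2OS-DDR1 PathHunter cells preincubated 30 min with compound, then stimulated overnight at 37 °C with 20 μg/ml bovine type II collagen. Luminescent complementation signal read after 1 h detection at room temperature; normalized to vehicle (0%) and collagen-only (100%) controls, IC50 from variable-slope sigmoidal fit.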

DDR1 [3] = biological target: T2, DDR1; assay: DDR1 LanthaScreen Europium Kinase Binding assay; conditions: binding affinity; IC50 converted in Ki using Cheng-Prusoff; read-out: Ki DDR1
Method in brief: (§1)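 Binding by TR-FRET tracer displacement: compounds incubated 1 h at room temperature with 5 nM DDR1 plus 20 nM Kinase Tracer 178, or 5 nM DDR2 plus 10 nM tracer, and 2 nM Eu anti-GST antibody in pH 7.5 HEPES/MgCl2/EGTA/BRIJ35 buffer. 665/615 nm ratio gave four-parameter IC50, converted to Ki via Cheng-Prusoff.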

DDR2 [4] = biological target: T1, DDR2; assay: DDR2 LanthaScreen Europium Kinase Binding assay; conditions: binding affinity; IC50 converted in Ki using Cheng-Prusoff; read-out: Ki DDR2
Method in brief: as §1

SMILES	IC50 (DDR2 [1]) [nM]	IC50 (DDR1 [2]) [nM]	Ki (DDR1 [3]) [nM]	Ki (DDR2 [4]) [nM]
CC1CN(Cc2cnc3[nH]ncc3c2)c2cc(C(=O)Nc3cccc(C(F)(F)F)c3)ccc21 (single isomer, unassigned) [Example 34, 1-((1H-pyrazolo[3,4-b]pyridin-5-yl)methyl)-3-methyl-N-(3-(trifluoromethyl)phenyl)indoline-6-carboxamide]	25 to 50	< 25	< 25	< 25
O=C(Nc1cccc(OC(F)(F)F)c1)c1ccc2c(c1)N(Cc1cnc3[nH]ncc3c1)CC2 [Example 37, 1-((1H-pyrazolo[3,4-b]pyridin-5-yl)methyl)-N-(3-(trifluoromethoxy)phenyl)indoline-6-carboxamide]	< 25	< 25	< 25	< 25
Cc1n[nH]c2ncc(CN3CCc4ccc(C(=O)Nc5cc(C(C)(C)C)no5)cc43)cc12 [Example 80, N-(3-(tert-butyl)isoxazol-5-yl)-1-((3-methyl-1H-pyrazolo[3,4-b]pyridin-5-yl)methyl)indoline-6-carboxamide]	< 25	< 25	< 25	< 25
Cc1cn(-c2cc(NC(=O)c3ccc4c(c3)N(Cc3cnc5cnccn35)CC4C)cc(C(F)(F)F)c2)cn1 (single isomer, unassigned) [Example 27, 1-(imidazo[1,2-a]pyrazin-3-ylmethyl)-3-methyl-N-(3-(4-methyl-1H-imidazol-1-yl)-5-(trifluoromethyl)phenyl)indoline-6-carboxamide]	< 25	< 25	< 25	< 25
Cc1n[nH]c2ncc(CN3CCc4ccc(C(=O)Nc5ccc(CN6CCN(C)CC6)c(C(F)(F)F)c5)cc43)cc12 [Example 65, 1-((3-methyl-1H-pyrazolo[3,4-b]pyridin-5-yl)methyl)-N-(4-((4-methylpiperazin-1-yl)methyl)-3-(trifluoromethyl)phenyl)indoline-6-carboxamide]	50 to 80	< 25	< 25	< 25
Cc1cn(-c2cc(C(=O)Nc3ccc4c(c3)N(Cc3cnc5cnccn35)CC4)cc(C(F)(F)F)c2)cn1 [Example 22, N-(1-(imidazo[1,2-a]pyrazin-3-ylmethyl)indolin-6-yl)-3-(4-methyl-1H-imidazol-1-yl)-5-(trifluoromethyl)benzamide]	25 to 50	< 25	< 25	< 25
Cc1cn(-c2cc(C(=O)Nc3ccc4c(c3)N(Cc3cnc5[nH]ncc5c3)CC4)cc(C(F)(F)F)c2)cn1 [Example 38, N-(1-((1H-pyrazolo[3,4-b]pyridin-5-yl)methyl)indolin-6-yl)-3-(4-methyl-1H-imidazol-1-yl)-5-(trifluoromethyl)benzamide]	50 to 80	< 25	< 25	< 25
Cc1cn(-c2cc(NC(=O)c3ccc4c(c3)N(Cc3cnc5[nH]ccc5c3)CC4)cc(C(F)(F)F)c2)cn1 [Example 2, 1-((1H-pyrrolo[2,3-b]pyridin-5-yl)methyl)-N-(3-(4-methyl-1H-imidazol-1-yl)-5-(trifluoromethyl)phenyl)indoline-6-carboxamide]	< 25	< 25	< 25	< 25
Cc1cn(-c2cc(NC(=O)c3ccc4c(c3)N(Cc3cnc5ccccn35)CC4)cc(C(F)(F)F)c2)cn1 [Example 1, 1-(imidazo[1,2-a]pyridin-3-ylmethyl)-N-(3-(4-methyl-1H-imidazol-1-yl)-5-(trifluoromethyl)phenyl)indoline-6-carboxamide]	50 to 80	< 25	< 25	< 25
CC(C)(c1cc(NC(=O)c2ccc3c(c2)N(Cc2cnc4[nH]ncc4c2)CC3)no1)C(F)(F)F [Example 36, 1-((1H-pyrazolo[3,4-b]pyridin-5-yl)methyl)-N-(5-(1,1,1-trifluoro-2-methylpropan-2-yl)isoxazol-3-yl)indoline-6-carboxamide]	50 to 80	< 25	< 25	< 25
Cc1cn(-c2cc(NC(=O)c3ccc4c(c3)N(Cc3cnc5cnccn35)CC4)cc(C(F)(F)F)c2)cn1 [Example 3, 1-(imidazo[1,2-a]pyrazin-3-ylmethyl)-N-(3-(4-methyl-1H-imidazol-1-yl)-5-(trifluoromethyl)phenyl)indoline-6-carboxamide]	50 to 80	< 25	< 25	< 25
Cc1cn(-c2cc(NC(=O)c3ccc4c(c3)N(Cc3cnc5[nH]ncc5c3)CC4)cc(C(F)(F)F)c2)cn1 [Example 6, 1-((1H-pyrazolo[3,4-b]pyridin-5-yl)methyl)-N-(3-(4-methyl-1H-imidazol-1-yl)-5-(trifluoromethyl)phenyl)indoline-6-carboxamide]	50 to 80	< 25	< 25	< 25
CN1CCN(Cc2ccc(NC(=O)c3ccc4c(c3)N(Cc3cnc5[nH]ncc5c3)CC4)cc2C(F)(F)F)CC1 [Example 75]	< 25	< 25	< 25	< 25
CC1CN(Cc2cnc3cnccn23)c2cc(C(=O)Nc3cccc(C(F)(F)F)c3)ccc21 (centres unmarked) [Example 31, 1-(imidazo[1,2-a]pyrazin-3-ylmethyl)-3-methyl-N-(3-(trifluoromethyl)phenyl)indoline-6-carboxamide]	50 to 80	< 25	< 25	< 25
